Measured values taken from patent US5436254A, “Carbostyril derivatives” (Otsuka Pharmaceutical Company, Ltd., priority 1989, dated 1995).

These molecules were tested against V1 receptor (Rattus norvegicus, UniProt P30560) (assay: biochemical). Conditions: not given.
Chain of V1 receptor (P30560 whole entry): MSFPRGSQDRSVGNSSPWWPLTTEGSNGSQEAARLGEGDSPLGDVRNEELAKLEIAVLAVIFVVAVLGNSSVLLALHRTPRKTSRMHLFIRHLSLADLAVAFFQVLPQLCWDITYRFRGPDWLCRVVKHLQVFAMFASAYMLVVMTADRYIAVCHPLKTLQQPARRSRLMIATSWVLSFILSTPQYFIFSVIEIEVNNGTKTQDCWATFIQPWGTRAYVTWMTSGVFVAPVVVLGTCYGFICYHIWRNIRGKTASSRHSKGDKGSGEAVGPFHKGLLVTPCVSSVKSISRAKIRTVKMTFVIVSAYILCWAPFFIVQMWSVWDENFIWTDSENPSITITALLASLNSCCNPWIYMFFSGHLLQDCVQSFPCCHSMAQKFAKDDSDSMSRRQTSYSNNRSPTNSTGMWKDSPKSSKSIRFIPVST
Type: binding
Molecule O=C(NCCCOc1ccc(C(=O)N2CCC(N3C(=O)CCc4ccccc43)CC2)cc1)[C@@H]1CCCN1 [Example 224, 1-{1-[4-(3-(S)-Prolylaminopropoxy)benzoyl]-4-piperidinyl]-3,4-dihydrocarbostyril] has an IC50 of 0.094 µM. In the case of Nc1ccc(C(=O)NCCCOc2ccc(C(=O)N3CCC(N4C(=O)CCc5ccccc54)CC3)cc2)cc1 [Example 193, 1-{1-[4-(3-(4-Aminobenzoylamino)propoxy)benzoyl]-4-piperidinyl}-3,4-dihydrocarbostyril], the IC50 is reported as 0.12 µM. O=C(CCCCCOc1ccc(C(=O)N2CCC(N3C(=O)CCc4ccccc43)CC2)cc1)NC1CCN(Cc2ccccc2)CC1 [Example 200, 1-{1-[4-(5-(1-Benzyl-4-piperidinyl)aminocarbonylpentyloxy)benzoyl]-4-piperidinyl}-3,4-dihydrocarbostyril] gave an IC50 of 0.034 µM. Molecule CCN(CC)CCCCCOc1ccc(C(=O)N2CCC(N3C(=O)CCc4ccccc43)CC2)c(OCCCCCN(CC)CC)c1 [Example 292, 1-{1-[2,4-Di(5-diethylaminopentyloxy]benzoyl)-4-piperidinyl}-3,4-dihydrocarbostyril] has an IC50 of 0.077 µM. With Cn1ccnc1SCCCCCOc1ccc(C(=O)N2CCC(N3C(=O)CCc4ccccc43)CC2)cc1 [Example 278, 1-{1-(4-[5-(1-Methyl-2-imidazolylthio)pentyloxy]benzoyl)-4-piperidinyl}-3,4-dihydrocarbostyril] the IC50 was 0.11 µM. Molecule COc1cc(OCCCCC(=O)N2CC[S+]([O-])CC2)ccc1C(=O)N1CCC(N2C(=O)CCc3ccccc32)CC1 [Example 295, 1-{1-(2-Methoxy-4-[4-(4-oxothiomorpholino)carbonylbutyloxy)benzoyl]-4-piperidinyl}-3,4-dihydrocarbostyril] has an IC50 of 0.077 µM. For COc1ccc(C(=O)N2CCC(N3C(=O)CCc4cc(F)ccc43)CC2)c(OC)c1 [Example 79, 6-Fluoro-1-[1-(2,4-dimethoxybenzoyl)-4-piperidinyl]-3,4-dihydrocarbostyril], the IC50 was 0.5 µM. Work on CC(C)[C@H](NC(=O)CCCCCOc1ccc(C(=O)N2CCC(N3C(=O)CCc4ccccc43)CC2)cc1)C(N)=O [Example 147, 1-{1-[4-{5-[1-(S)-Carbamoyl-2-methyl]propylaminocarbonylpentyloxy}benzoyl]-4-piperidinyl}-3,4-dihydrocarbostyril] yielded an IC50 of 0.098 µM. NC(=O)CNC(=O)CCCCCCCOc1ccc(C(=O)N2CCC(N3C(=O)CCc4ccccc43)CC2)cc1 [Example 16, 1-(1-[4-(7-Carbamoylmethylaminocarbonylheptyloxy)benzoyl]-4-piperidinyl}-3,4-dihydrocarbostyril] showed an IC50 of 0.15 µM. For NC(=O)CCCCCOc1ccc(C(=O)N2CCC(N3C(=O)CCc4ccccc43)CC2)cc1 [Example 12, 1-{1-[4-(5-Carbamoylpentyloxy)benzoyl]-4-piperidinyl}-3,4-dihydrocarbostyril], the IC50 was 0.23 µM. O=C(CN1CCN(CCCOc2ccc(C(=O)N3CCC(N4C(=O)CCc5ccccc54)CC3)cc2)CC1)c1ccccc1 [Example 137, 1-[1-{4-[3-(4-Benzoylmethyl-1-piperazinyl)propoxy]benzoyl}-4-piperidinyl]-3,4-dihydrocarbostyril.dioxalate] gave an IC50 of 0.12 µM. For CCCNc1cc(OC)ccc1C(=O)N1CCC(N2C(=O)CCc3ccccc32)CC1 [Example 57, 1-[1-(2-Propylamino-4-methoxybenzoyl)-4-piperidinyl]-3,4-dihydrocarbostyril], the IC50 was 0.27 µM. CN(CCC#N)CCCCCOc1ccc(C(=O)N2CCC(N3C(=O)CCc4ccccc43)CC2)cc1 [Example 247, 1-{1-(4-[5-(N-(2-Cyanoethyl)-N-methylamino)pentyloxy]benzoyl)-4-piperidinyl}-3,4-dihydrocarbostyril] gave an IC50 of 0.17 µM. With O=C(c1ccc(OCCCN2CCN(Cc3ccccc3)CC2)cc1)N1CCC(N2C(=O)CCc3ccccc32)CC1 [Example 133, 1-[1-{4-[3-(4-Benzyl-1-piperazinyl)propoxy]benzoyl}-4-piperidinyl]-3,4-dihydrocarbostyril.dioxalate] the IC50 was 0.33 µM. Work on CCSc1nccn1-c1ccc(C(=O)N2CCC(N3C(=O)CCc4ccccc43)CC2)cc1 [Example 89, 1-{1-[4-(2-Ethylthioimidazol-1-yl)benzoyl]-4-piperidinyl)-3,4-dihydrocarbostyril] yielded an IC50 of 1.6 µM. With CS(=O)(=O)NCC(=O)NCCCCCOc1ccc(C(=O)N2CCC(N3C(=O)CCc4ccccc43)CC2)cc1 [Example 310, 1-{1-(4-[5-(2-Methanesulfonylaminoacetylamino)pentyloxy]benzoyl)-4-piperidinyl]-3,4-dihydrocarbostyril] the IC50 was 0.16 µM. CNC(=O)NCCCOc1ccc(C(=O)N2CCC(N3C(=O)CCc4ccccc43)CC2)cc1 [Example 23, 1-[1-{4-[3-(3-Methylureido)propoxy]benzoyl}-4-piperidinyl]-3,4-dihydrocarbostyril] showed an IC50 of 0.24 µM. O=C(c1ccc(OCCCO)cc1)N1CCC(N2C(=O)CCc3ccccc32)CC1 [Example 32, 1-{1-[4-(3-Hydroxypropoxy)benzoyl]-4-piperidinyl}-3,4-dihydrocarbostyril] gave an IC50 of 0.46 µM. Work on NC(=O)[C@@H]1CCCN1CC(O)CCCCOc1ccc(C(=O)N2CCC(N3C(=O)CCc4ccccc43)CC2)cc1 (some centres unmarked) [Example 302] yielded an IC50 of 0.088 µM. With COc1cc(OCCCCC(N)=O)ccc1C(=O)N1CCC(N2C(=O)CCc3ccccc32)CC1 [Example 294, 1-{1-[2-Methoxy-4-(4-carbamoylbutoxy)benzoyl]-4-piperidinyl}-3,4-dihydrocarbostyril] the IC50 was 0.17 µM. NC(=O)CNC(=O)CCCCOc1ccc(C(=O)N2CCC(N3C(=O)CCc4ccccc43)CC2)cc1 [Example 4, 1-{1-[4-(4-Carbamoylmethylaminocarbonylbutoxy)benzoyl]-4-piperidinyl}-3,4-dihydrocarbostyril] was tested, and the IC50 was 0.24 µM. For CCOC(=O)CN(C)c1cc(OC)ccc1C(=O)N1CCC(N2C(=O)CCc3ccccc32)CC1 [Example 102, 1-{1-[4-Methoxy-2-(N-methyl-N-ethoxycarbonylmethylamino)benzoyl]-4-piperidinyl}-3,4-dihydrocarbostyril], the IC50 was 1.1 µM. Work on CC(C)=CCCC(C)=CC(=O)N1CCC(N2C(=O)CCc3ccccc32)CC1 [Example 114, 1-[1-(2,6-Dimethyl-1,5-heptadiene-1-carbonyl)-4-piperidinyl]-3,4-dihydrocarbostyril] yielded an IC50 of 1.5 µM. Work on CN(C)c1ccc(S(=O)(=O)NCCCCCOc2ccc(C(=O)N3CCC(N4C(=O)CCc5ccccc54)CC3)cc2)cc1 [Example 258, 1-{1-(4-[5-(4-Dimethylaminophenylsulfonylamino)pentyloxy]benzoyl)-4-piperidinyl]-3,4-dihydrocarbostyril] yielded an IC50 of 0.47 µM. Work on CCN(CC)CC(O)CCCCCCOc1ccc(C(=O)N2CCC(N3C(=O)CCc4ccccc43)CC2)cc1 (centres unmarked) [Example 184, 1-{1-[4-(7-Hydroxy-8-diethylaminooctyloxy)benzoyl]-4-piperidinyl}-3,4-dihydrocarbostyril] yielded an IC50 of 0.039 µM. COc1ccc(CNCC(O)CCCCOc2ccc(C(=O)N3CCC(N4C(=O)CCc5ccccc54)CC3)cc2)cc1OC (centres unmarked) [Example 299, 1-{1-(4-[5-Hydroxy-6-(3,4-dimethoxybenzylamino)hexyloxy]benzoyl)-4-piperidinyl}-3,4-dihydrocarbostyril.oxalate] gave an IC50 of 0.065 µM. CC(=O)OCCCCOc1ccc(C(=O)N2CCC(N3C(=O)CCc4ccccc43)CC2)cc1 [Example 37, 1-{1-[4-(4-Acetoxybutoxy)benzoyl]-4-piperidinyl}-3,4-dihydrocarbostyril] showed an IC50 of 0.36 µM. For Cn1ccnc1S(=O)(=O)CCCCCOc1ccc(C(=O)N2CCC(N3C(=O)CCc4ccccc43)CC2)cc1 [Example 282, 1-{1-(4-[5-(1-Methyl-2-imidazolylsulfonyl)pentyloxy)benzoyl)-4-piperidinyl}-3,4-dihydrocarbostyril], the IC50 was 0.075 µM. With O=C(CO)NCCCCCOc1ccc(C(=O)N2CCC(N3C(=O)CCc4ccccc43)CC2)cc1 [Example 230, 1-[1-(4-[5-(2-Hydroxyacetylamino)pentyloxy]benzoyl)-4-piperidinyl)-3,4-dihydrocarbostyril] the IC50 was 0.18 µM. For C=CCNCC(=O)NCCCCCOc1ccc(C(=O)N2CCC(N3C(=O)CCc4ccccc43)CC2)cc1 [Example 251], the IC50 was 0.098 µM. CCN(CC)CC(O)CCCCOc1ccc(C(=O)N2CCC(N3C(=O)CCc4c(F)cc(F)cc43)CC2)c(OC)c1 (centres unmarked) [Example 201, 5,7-Difluoro-1-(1-[2-methoxy-4-(5-hydroxy-6-diethylaminohexyloxy)benzoyl]-4-piperidinyl}-3,4-dihydrocarbostyril] gave an IC50 of 0.008 µM. In the case of CC(=O)Nc1ccc(C(=O)NCCCCCOc2ccc(C(=O)N3CCC(N4C(=O)CCc5ccccc54)CC3)cc2)cc1 [Example 259, 1-{1-(4-[5-(4-Acetylaminobenzoyl)aminopentyloxy]benzoyl)-4-piperidinyl}-3,4'-dihydrocarbostyril], the IC50 is reported as 0.11 µM. CCOc1ccc(C(=O)N2CCC(N3C(=O)CCc4c(O)cccc43)CC2)c(OC)c1 [Example 308, 5-Hydroxy-1-[1-(2-methoxy-4-ethoxybenzoyl)-4-piperidinyl}-3,4-dihydrocarbostyril] gave an IC50 of 0.095 µM. O=C(c1ccc(OCCCC(O)CN2CCCC2)cc1)N1CCC(N2C(=O)CCc3ccccc32)CC1 (centres unmarked) [Example 186, 1-{1-[4-(4-Hydroxy-5-(1-pyrrolidinyl)pentyloxy)benzoyl]-4-piperidinyl}-3,4-dihydrocarbostyril] was tested, and the IC50 was 0.063 µM. In the case of CCN(CC)CC(O)CCCCOc1ccc(C(=O)N2CCC(N3C(=O)CCc4ccc(F)cc43)CC2)c(OC)c1 (centres unmarked) [Example 185, 7-Fluoro-1-{1-[4-(5-Hydroxy-6-diethylaminohexyloxy)-2-methoxybenzoyl]-4-piperidinyl}-3,4-dihydrocarbostyril], the IC50 is reported as 0.01 µM. Work on NC(=O)CCCCCCCOc1ccc(C(=O)N2CCC(N3C(=O)CCc4ccccc43)CC2)cc1 [Example 15, 1-{1-[4-(7-Carbamoylheptyloxy)benzoyl]-4-piperidinyl}-3,4-dihydrocarbostyril] yielded an IC50 of 0.26 µM. CC(=O)OCCCOc1ccc(C(=O)N2CCC(N3C(=O)CCc4ccccc43)CC2)cc1 [Example 33, 1-{1-[4-(3-Acetoxypropoxy)benzoyl]-4-piperidinyl}-3,4-dihydrocarbostyril] gave an IC50 of 0.45 µM.

Same assay, conditions: [H]3-Arg-vasopressin 2×10^-10 M, rat liver plasma membrane, 37° C., 10 minutes, pH 8.0; read-out: IC50
COc1ccc(N(Cc2ccccc2)C(=O)c2ccc(N3C(=O)CCc4ccccc43)cc2)cc1 [Example 85] was tested, and the IC50 was 3 µM.
